Data published in ChEMBL document CHEMBL1150002, “Synthesis and biological activities of new heterocyclic aromatic retinoids” (Bioorg Med Chem Lett, 1997).
Active and inactive are the calls of the source. No cut-off for these calls is given here.

Experiments:
[1] = biological target: T1, Retinoic acid receptor RXR-alpha (Homo sapiens) (UniProt P19793); assay: Evaluated for RXR-alpha functional transcriptional activation; NA means not active at 1 uM
T1 sequence (whole entry): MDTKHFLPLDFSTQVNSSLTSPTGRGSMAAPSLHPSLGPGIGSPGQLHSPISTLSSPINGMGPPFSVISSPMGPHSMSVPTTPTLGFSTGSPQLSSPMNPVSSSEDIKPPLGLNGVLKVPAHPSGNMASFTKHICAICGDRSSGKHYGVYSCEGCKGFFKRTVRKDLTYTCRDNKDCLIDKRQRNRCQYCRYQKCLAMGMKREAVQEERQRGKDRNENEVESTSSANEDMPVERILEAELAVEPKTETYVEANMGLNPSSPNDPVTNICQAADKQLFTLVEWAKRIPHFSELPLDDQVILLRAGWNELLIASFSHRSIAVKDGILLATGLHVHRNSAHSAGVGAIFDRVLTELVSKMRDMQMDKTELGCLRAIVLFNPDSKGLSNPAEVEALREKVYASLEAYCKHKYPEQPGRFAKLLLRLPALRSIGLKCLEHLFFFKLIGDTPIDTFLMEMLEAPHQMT

[2] = biological target: T2, Retinoic acid receptor gamma (Homo sapiens, UniProt P13631); assay: Binding affinity towards Retinoic acid receptor gamma
T2 sequence (P13631 whole entry): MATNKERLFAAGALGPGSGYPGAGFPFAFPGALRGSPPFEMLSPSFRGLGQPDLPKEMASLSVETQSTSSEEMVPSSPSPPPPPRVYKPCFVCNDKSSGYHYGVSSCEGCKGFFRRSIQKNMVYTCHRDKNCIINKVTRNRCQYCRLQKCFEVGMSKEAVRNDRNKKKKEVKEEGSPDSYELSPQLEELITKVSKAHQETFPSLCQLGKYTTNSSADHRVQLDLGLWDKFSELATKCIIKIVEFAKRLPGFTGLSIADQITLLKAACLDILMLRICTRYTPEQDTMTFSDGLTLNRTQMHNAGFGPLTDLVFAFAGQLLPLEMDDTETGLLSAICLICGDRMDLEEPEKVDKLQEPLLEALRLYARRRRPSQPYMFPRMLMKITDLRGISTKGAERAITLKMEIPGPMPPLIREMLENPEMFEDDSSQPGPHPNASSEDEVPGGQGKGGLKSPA

[3] = biological target: T3, Retinoic acid receptor alpha (Homo sapiens, UniProt P10276); assay: Binding affinity towards Retinoic acid receptor alpha
T3 sequence (P10276 whole entry): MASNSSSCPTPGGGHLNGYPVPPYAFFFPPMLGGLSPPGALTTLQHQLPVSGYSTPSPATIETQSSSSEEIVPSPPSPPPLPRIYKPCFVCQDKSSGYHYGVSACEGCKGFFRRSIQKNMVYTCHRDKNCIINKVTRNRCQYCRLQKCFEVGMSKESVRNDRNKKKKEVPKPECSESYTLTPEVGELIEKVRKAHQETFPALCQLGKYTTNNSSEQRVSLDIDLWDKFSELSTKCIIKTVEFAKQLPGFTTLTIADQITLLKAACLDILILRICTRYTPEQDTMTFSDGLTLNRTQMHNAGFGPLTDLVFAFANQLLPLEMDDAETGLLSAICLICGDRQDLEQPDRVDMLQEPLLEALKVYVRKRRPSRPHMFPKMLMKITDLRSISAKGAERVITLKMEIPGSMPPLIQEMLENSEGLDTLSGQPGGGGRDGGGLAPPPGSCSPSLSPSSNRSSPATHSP

F9 [4] = assay: Compound was tested for its ability to induce differentiation of F9 cells as estimated by plasminogen activator secretion (PA); format: functional, cell-based; details: Mus musculus
[5] = biological target: T4, Retinoic acid receptor beta (Homo sapiens, UniProt P10826); assay: Binding affinity towards Retinoic acid receptor beta
T4 sequence (P10826 whole entry): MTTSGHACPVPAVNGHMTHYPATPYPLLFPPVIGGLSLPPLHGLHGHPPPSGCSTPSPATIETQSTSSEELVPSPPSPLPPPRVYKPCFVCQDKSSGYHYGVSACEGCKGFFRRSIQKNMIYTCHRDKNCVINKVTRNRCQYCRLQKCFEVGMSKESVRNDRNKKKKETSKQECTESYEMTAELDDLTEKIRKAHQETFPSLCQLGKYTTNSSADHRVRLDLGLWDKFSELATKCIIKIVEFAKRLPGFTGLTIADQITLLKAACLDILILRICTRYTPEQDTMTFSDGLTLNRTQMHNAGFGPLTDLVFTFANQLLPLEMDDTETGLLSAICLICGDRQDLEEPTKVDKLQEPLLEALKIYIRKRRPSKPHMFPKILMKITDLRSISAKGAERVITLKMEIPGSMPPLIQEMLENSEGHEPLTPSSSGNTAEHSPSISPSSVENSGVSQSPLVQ

F9 [6] = assay: Compound was tested for its ability to induce differentiation of F9 cells as estimated by plasminogen activator secretion (PA); NA = Not active; format: functional, cell-based, Mus musculus

| SMILES | Activity [1] | Ki [2] [nM] | Ki [3] [nM] | AC50 (F9 [4]) [nM] | Ki [5] [nM] | AC50 (F9 [6]) |
| --- | --- | --- | --- | --- | --- | --- |
| CC1(C)CCC(C)(C)c2cc(-c3ccc4cc(C(=O)O)ccc4c3)ccc21 | inactive | – | – | – | – | – |
| COc1ccc(-c2ccc3cc(C(=O)O)ccc3c2)cc1C12CC3CC(CC(C3)C1)C2 | inactive | – | – | – | – | – |
| CC1(C)CCC(C)(C)c2cc(C3COc4cc(C(=O)O)ccc4C3)ccc21 (centres undefined) | inactive | 1040 | 5790 | 300 | 90 | – |
| CC(C)(C)c1cc(C2=Cc3ccc(C(=O)O)cc3OC2)ccc1O | inactive | > 3000 | > 3000 | – | > 3000 | Not Active |
| CC(C)(C)c1cc(C2=Cc3ccc(C(=O)O)cc3OC2)cc(C(C)(C)C)c1O | inactive | 531 | – | 305 | > 3000 | – |
| CC(C)(C)c1cc(-c2ccc3cc(C(=O)O)ccc3c2)ccc1O | inactive | – | > 3000 | – | > 3000 | Not Active |
| O=C(O)c1ccc2c(c1)OCC(c1ccc(O)c(C34C[C@H]5C[C@@H](C3)C[C@@H](C4)C5)c1)=C2 | inactive | 148 | 821 | 107 | > 3000 | – |
| COc1ccc(C2=Cc3ccc(C(=O)O)cc3OC2)cc1C12C[C@H]3C[C@@H](C1)C[C@@H](C2)C3 | inactive | 174 | 764 | – | 71 | – |
| CC1(C)CCC(C)(C)c2cc(C3=Cc4ccc(C(=O)O)cc4OC3)ccc21 | inactive | 19 | 487 | 58 | 36 | – |
